From paper PMC11633360 (ChemistryOpen, 2024)
Values after ≈ are worked out from the molar mass of the structure shown. Values joined by “and” are separate entries in the source; they are usually repeats but may differ in a detail not shown here. Identical values can stand only once.

Experiments:
[1] = DPPH radical scavenging activity; details: DPPH 300 μM in methanol, 30 minutes, 25 °C
Experimental: The capacity of the chemical compounds to decolourize the purple colour of DPPH solution was investigated following a modified procedure of Turkoglu et al..[48] […] The solution was mixed gently before equilibration in a dark compartment for 30 minutes at 25 °C. […] The DPPH radical scavenging ability of each compound was estimated using the expression below: %DPPHscavenging=1-TestsampleAbs/BlankAbs×100

[2] = tested on: Mtb H37Rv; assay: microbe, parasite or virus in culture; assay type: cell-based, Mycobacterium tuberculosis; details: for MIC90: Mycobacterium tuberculosis, H37RV, read-out: GFP Assay – 10pt DR: MIC90
[3] = Nitric oxide (NO) scavenging activity; details: sodium nitroprusside, pH 7.4, 2 hr, 37 °C, Griess reagent
Experimental: The NO radical mop‐up ability of the compounds was evaluated using Kurian et al.[49] previous protocol. […] After 2 hr equilibration at 37 °C, 0.250 mL of Griess reagent was added, and the absorbance of the coloured solution produced was measured at 545 nm against a blank solution lacking the test samples. Subsequently, the % NO scavenging antioxidant capacity of the compounds was expressed as: %Nitricoxidescavenging=1-TestsampleAbs/BlankAbs×100

SMILES | IC50 [1] [µM] | GFP Assay – 10pt DR: MIC90 [2] | MIC90 [2] [µM] | IC50 [3] [µM] | melting point [°C]
Nc1ncnc2c1c(N1CCN(CCO)CC1)nn2-c1ccnc2cc(Cl)ccc12 [10 g, 2‐(4‐(4‐Amino‐1‐(7‐Chloroquinolin‐4‐yl)‐1H‐Pyrazolo[3,4–d]pyrimidin‐3‐yl)piperazin‐1‐yl)ethanol] | 2960 | >125 µM | 62.5 (≈ 26.6 µg/mL) | 280 | –
CN1CCN(c2nn(-c3ccnc4cc(Cl)ccc34)c3ncnc(N)c23)CC1 [Compound 10e, 1‐(7‐Chloroquinolin‐4‐yl)‐3‐(4‐Methylpiperazin‐1‐yl)‐1H‐Pyrazolo[3,4–d]pyrimidin‐4‐Amine] | > 4000 | – | – | > 4000 | –
O=[N+]([O-])c1ccc(Nc2ccnc3cc(Cl)ccc23)cc1 [12 h, 7‐Chloro‐N‐(4‐Nitrophenyl)quinolin‐4‐Amine] | 80 | 62.5 µM | > 125 | 650 | –
CC1CCN(c2n[nH]c3ncnc(N)c23)CC1 [Compound 8b, 3‐(4‐methylpiperidin‐1‐yl)‐1H‐pyrazolo[3,4–d]pyrimidin‐4‐amine] | > 4000 | – | – | 1010 | –
Nc1ncnc2c1c(N1CCOCC1)nn2-c1ccnc2cc(Cl)ccc12 [Compound 10d, 1‐(7‐Chloroquinolin‐4‐yl)‐3‐Morpholino‐1H‐Pyrazolo[3,4–d]pyrimidin‐4‐Amine] | > 4000 | – | > 125 | 2460 | –
Clc1ccc(Nc2ccnc3cc(Cl)ccc23)cc1 [Compound 12c, 7‐Chloro‐N‐(4‐Chlorophenyl)quinolin‐4‐Amine] | > 4000 | – | > 125 | > 4000 | > 250
Clc1ccc2c(Cl)ccnc2c1 [Compound 9, 4,7‐dichloroquinoline] | > 4000 | – | > 125 | 820 | –
FC(F)(F)Oc1ccc(Nc2ccnc3cc(Cl)ccc23)cc1 [12 g, 7‐Chloro‐N‐(4‐(trifluoromethoxy)phenyl)quinolin‐4‐Amine] | > 4000 | – | – | > 4000 | > 250
O=C1O[C@H]([C@@H](O)CO)C(O)=C1O [Ascorbic acid, reference compound] | 50 | – | – | > 4000 | –
CCN1CCN(c2n[nH]c3ncnc(N)c23)CC1 [Compound 8e, 3‐(4‐Ethylpiperazin‐1‐yl)‐1H‐Pyrazolo[3,4–d]pyrimidin‐4‐Amine] | 930 | 62.5 µM | > 125 | 980 | –
CCN1CCN(c2nn(-c3ccnc4cc(Cl)ccc34)c3ncnc(N)c23)CC1 [Compound 10f, 1‐(7‐Chloroquinolin‐4‐yl)‐3‐(4‐Ethylpiperazin‐1‐yl)‐1H‐Pyrazolo[3,4–d]pyrimidin‐4‐Amine] | > 4000 | >125 µM and 125 µM | 62.5 (≈ 25.6 µg/mL) | 800 | –
Nc1ncnc2[nH]nc(N3CCCCC3)c12 [Compound 8a, 3‐(piperidin‐1‐yl)‐1H‐Pyrazolo[3,4–d]pyrimidin‐4‐Amine] | 3400 | 125 µM | > 125 | 800 | –
Nc1ncnc2[nH]ncc12 [Compound 4, 1H‐Pyrazolo[3,4–d]pyrimidin‐4‐Amine] | > 4000 | – | – | 780 | –
CC1CCN(c2nn(-c3ccnc4cc(Cl)ccc34)c3ncnc(N)c23)CC1 [Compound 10c, 1‐(7‐chloroquinolin‐4‐yl)‐3‐(4‐methylpiperidin‐1‐yl)‐1H‐pyrazolo[3,4–d]pyrimidin‐4‐amine] | 2100 | >125 µM and 125 µM | 62.5 (≈ 24.6 µg/mL) | 2780 | –
Fc1ccc(Nc2ccnc3cc(Cl)ccc23)cc1 [Compound 12b, 7‐Chloro‐N‐(4‐Fluorophenyl)quinolin‐4‐Amine] | > 4000 | – | – | 1920 | –
Cc1ccc(Nc2ccnc3cc(Cl)ccc23)cc1 [Compound 12e, 7‐Chloro‐N‐(p–tolyl)quinolin‐4‐Amine] | > 4000 | – | – | > 4000 | > 250
Clc1ccc2c(Nc3ccccc3)ccnc2c1 [Compound 12a, 7‐Chloro‐N‐Phenylquinolin‐4‐Amine] | > 4000 | 62.5 µM and >125 µM | 125 (≈ 31.8 µg/mL) | 500 | > 250
Nc1ncnc2c1cnn2-c1ccnc2cc(Cl)ccc12 [Compound 10a, 1‐(7‐Chloroquinolin‐4‐yl)‐1H‐Pyrazolo[3,4–d]pyrimidin‐4‐Amine] | > 4000 | – | > 125 | 2590 | –
Nc1ncnc2[nH]nc(N3CCOCC3)c12 [Compound 8c, 3‐Morpholino‐1H‐Pyrazolo[3,4–d]pyrimidin‐4‐Amine] | > 4000 | – | – | 880 | –
Nc1ncnc2c1c(N1CCCCC1)nn2-c1ccnc2cc(Cl)ccc12 [Compound 10b, 1‐(7‐Chloroquinolin‐4‐yl)‐3‐(piperidin‐1‐yl)‐1H‐Pyrazolo[3,4–d]pyrimidin‐4‐Amine] | > 4000 | – | > 125 | > 4000 | –
CN1CCN(c2n[nH]c3ncnc(N)c23)CC1 [Compound 8d, 3‐(4‐Methylpiperazin‐1‐yl)‐1H‐Pyrazolo[3,4–d]pyrimidin‐4‐Amine] | 580 | 62.5 µM | > 125 | 800 | –
Clc1ccc2c(Nc3ccc(Br)cc3)ccnc2c1 [Compound 12d, N‐(4‐Bromophenyl)‐7‐Chloroquinolin‐4‐Amine] | > 4000 | – | > 125 | > 4000 | > 250
COc1ccc(Nc2ccnc3cc(Cl)ccc23)cc1 [Compound 12f, 7‐Chloro‐N‐(4‐Methoxyphenyl)quinolin‐4‐Amine] | > 4000 | >125 µM | 62.5 (≈ 17.8 µg/mL) | 880 | –
Nc1ncnc2[nH]nc(N3CCN(CCO)CC3)c12 [Compound 8f] | 3540 | – | > 125 | 600 | –
